In patent US20240415819A1, “MACROCYCLIC COMPOUNDS AS PROTEASOME SUBUNIT BETA TYPE-5 INHIBITORS” (Lead Discovery Center GmbH, priority 2021, published 2024):

What was measured:
[1] = biological target: T1, β5 subunit of the human constitutive proteasome (CPS) (Homo sapiens, UniProt P28074); assay: β5 inhibition assay, human constitutive proteasome (Suc-LLVY-AMC); assay type: biochemical; conditions: IC50 class, Suc-LLVY-AMC substrate
T1 construct: purchased Boston Biochem E-360
Experimental: The enzymatic activity of the β5 subunit of the human constitutive proteasome (CPS) is analyzed. In another assay, which differs from the assay of the human constitutive proteasome only in using the human immunoproteasome (IPS) the enzymatic activity of the β5 subunit of the human immunoproteasome (IPS) is analyzed. […] Inhibition is indicated as IC50 [nM] (“-”=not measured).

[2] = biological target: T2, β5 subunit of the human immunoproteasome (IPS) (Homo sapiens, UniProt P28062); assay: β5 inhibition assay, human immunoproteasome (Suc-LLVY-AMC); assay type: biochemical; conditions: IC50 class, Suc-LLVY-AMC substrate
T2 construct: purchased Boston Biochem E-370
Procedure, shortened: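 β5 activity is read as liberated AMC fluorescence (355/460 nm) after 4 h dark reaction at RT with 22.6 μM Suc-LLVY-AMC, stopped by 1 μM bortezomib. Beforehand, 1 nM human IPS and compound sat 10 min at RT in HEPES pH 7.5 buffer containing NaCl, 0.02% SDS and DTT.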

[3] = tested on: A549 (human lung carcinoma cell line); assay: Glo assay of A549 cells (Table 3; ProteasomeGlo plating scheme); assay type: cell-based; conditions: Homo sapiens; A549 cells; read-out: PGLo A549
Procedure, shortened: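 Compound treatment lasts 105 minutes at 37° C. under 5% CO2. Suc-LLVY-Glo substrate premixed with detection reagent (60 min at room temperature) is then added directly to the cells, and luminescence after 10-15 min in the dark gives the IC50 in nM.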

[4] = tested on: Hs 746T (human gastric carcinoma cell line); assay: 48 hr CTG viability assay, Hs 746T; assay type: cell-based; conditions: Hs746T, 48 hr CTG, read-out: Hs 746T IC50
Procedure, shortened: (§1)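 Growth inhibition by compound over 48 h; IC50 (nM) derived from duplicate CellTiter-Glo luminescence readings across 0.0015–10 uM.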

[5] = tested on: MM1 S (B lymphoblast cell line); assay: 48 hr CTG viability assay, MM1S; assay type: cell-based; conditions: Homo sapiens, 48 hr CTG, read-out: MM1S IC50
Procedure, shortened: as §1

[6] = tested on: RPMI 8226 (B lymphocyte cell line, multiple myeloma); assay: 48 hr CTG viability assay, RPMI 8226; assay type: cell-based; conditions: Homo sapiens, RPMI-8226; 48 hr CTG; read-out: RPMI-8226 IC50
Procedure, shortened: as §1

Measured: IC50

Cc1ccc2cc1CNC(=O)[C@H](CCc1ccccc1)NC(=O)[C@@H](NC(=O)CCOCC1CC3(CCC3)C1)CC(=O)N1CCCC(CCO2)C1 (stereo partly drawn) [Compound 615, N-((9S,12S)-5^4-methyl-8,11,14-trioxo-9-phenethyl-4-oxa-7,10-diaza-1(3,1)-piperidina-5(1,3)-benzenacyclotetradecaphane-12-yl)-3-(spiro[3.3]heptan-2-ylmethoxy)propanamide]
< 100 nM: all assays above

Cc1ccc2cc1CNC(=O)[C@H](CCc1ccccc1)NC(=O)[C@@H](NC(=O)CCNC(=O)C1CC3(CCC3)C1)CC(=O)N1CCCC(CCO2)C1 (stereo partly drawn) [Compound 616, N-(3-(((9S,12S)-5^4-methyl-8,11,14-trioxo-9-phenethyl-4-oxa-7,10-diaza-1(3,1)-piperidina-5(1,3)-benzenacyclotetradecaphane-12-yl)amino)-3-oxopropyl)spiro[3.3]heptane-2-carboxamide]
< 100 nM: all assays above

Cc1ccc2cc1CNC(=O)[C@H](CCc1ccccc1)NC(=O)[C@@H](NC(=O)CCNC(=O)C1CC3CCC1C3)CC(=O)N1CCCC(CCO2)C1 (stereo partly drawn) [Compound 617, N-(3-(((9S,12S)-5^4-methyl-8,11,14-trioxo-9-phenethyl-4-oxa-7,10-diaza-1(3,1)-piperidina-5(1,3)-benzenacyclotetradecaphane-12-yl)amino)-3-oxopropyl)bicyclo[2.2.1]heptane-2-carboxamide]
< 100 nM: all assays above

Cc1ccc2cc1CNC(=O)[C@H](CCc1ccccc1)NC(=O)[C@@H](NC(=O)CCOCCc1ccccc1)CC(=O)N1CCCC(CCO2)C1 (stereo partly drawn) [Compound 618, N-((9S,12S)-5^4-methyl-8,11,14-trioxo-9-phenethyl-4-oxa-7,10-diaza-1(3,1)-piperidina-5(1,3)-benzenacyclotetradecaphane-12-yl)-3-phenethoxypropanamide]
< 100 nM: all assays above

COc1ccccc1COCCC(=O)N[C@H]1CC(=O)N2CCCC(CCOc3ccc(C)c(c3)CNC(=O)[C@H](CCc3ccccc3)NC1=O)C2 (stereo partly drawn) [Compound 619, 3-((2-methoxybenzyl)oxy)-N-((9S,12S)-5^4-methyl-8,11,14-trioxo-9-phenethyl-4-oxa-7,10-diaza-1(3,1)-piperidina-5(1,3)-benzenacyclotetradecaphane-12-yl)propanamide]
< 100 nM: all assays above

Cc1ccc2cc1CNC(=O)[C@H](CCc1ccccc1)NC(=O)[C@@H](NC(=O)CCN1CCC3(CCOC3)CC1)CC(=O)N1CCCC(CCO2)C1 (stereo partly drawn) [Compound 621, N-((9S,12S)-5^4-methyl-8,11,14-trioxo-9-phenethyl-4-oxa-7,10-diaza-1(3,1)-piperidina-5(1,3)-benzenacyclotetradecaphane-12-yl)-3-(2-oxa-8-azaspiro[4.5]decan-8-yl)propanamide]
< 100 nM: all assays above
